Source: patent US20230218630A1, “COMBINATION OF ALCAFTADINE AND A CORTICOSTEROID” (priority 2020, published 2023)

Columns and labels:
[1] = Pharmacokinetics after intranasal administration in rabbits; settings: for Tmax: male, New Zealand white, rabbit, plasma, inhaled or intranasal
Protocol: The pharmacokinetic profiles of the alcaftadine test formulations 4A, 4B, and 4C as well as an olapatdine nasal formulation were each determined on 6 male New Zealand white rabbits.
(§1) The study was carried out on total 24 male New Zealand white rabbits, which were segregated into four groups (G1 to G4, 6 rabbits/group). Mild anaesthesia was induced in all rabbits by inhalation of 2% isoflurane. Three groups (G1-G3) of anaesthetized rabbits were intranasally administered 250 μL of alcaftadine once-daily using the formulations of Examples 10A, 10B, and 10C. A comparator, 250 μL of olopatadine at a concentration of 0.6% w/v, was intranasally administered once-daily to a fourth group G4 of anaesthetized rabbits.
Sampling details for the test and reference formulations: Approximately 0.5 mL of blood sample from each rabbit was withdrawn via marginal ear vein into pre-labelled Eppendorf tubes containing 10% EDTA as an anticoagulant. Blood samples were withdrawn at 0 min, 5 min, 10 min, 15 min, 30 min, 60 min, 120 min, 240 min, 480 min and 1440 min after administration of test and reference formulations.
Procedure for sample preparation: Collected blood samples were mixed gently and kept on crushed ice. Plasma samples were separated after centrifugation at 3500 rpm for 10 min at 4° C. Plasma separation was carried out within 30 min of sample collection and stored at −70±10° C. The animals were euthanized by intravenous administration of sodium thiopental injection overdose and nasal epithelium was collected. Half of the tissues of nasal epithelium were homogenized using phosphate buffered solution (20% homogenation) for quantification of alcaftadine and olopatidine. The remaining half of the tissues were stored in 10% neutral buffered formalin for detailed gross histopathological examination such as necrosis, inflammation or any changes during necropsy.
Rabbit plasma and nasal epithelial tissue concentrations of alcaftadine or olopatidine were determined using a fit-for-purpose LC-MS/MS method with LLOQ of 0.500 ng/mL or 0.250 ng/mL, respectively. The pharmacokinetic parameters were evaluated using Phoenix WinNonlin® Ent-Version 8.0 by non-compartmental analysis.

H1 receptors = H1 receptors (Homo sapiens, UniProt P35367); settings: compared to azelastine and olapatadine; cited from earlier work
H2 receptors = H2 receptors (Homo sapiens, UniProt P25021); settings: compared to azelastine and olapatadine; cited from earlier work
[2] = Nasal irritation and histopathology of nasal epithelium in rabbits; format: in vivo, male New Zealand white rabbits; settings: intranasal, doses of 0.312 mg, 0.625 mg and 1.25 mg, all three groups
Protocol: as §1
The animals were euthanized by intravenous administration of sodium thiopental injection overdose and nasal epithelium was collected. […] The remaining half of the tissues were stored in 10% neutral buffered formalin for detailed gross histopathological examination such as necrosis, inflammation or any changes during necropsy.

[3] = single administration, doses of 0.625 to 1.25 mg

H2 receptors, sequence (P25021 whole entry): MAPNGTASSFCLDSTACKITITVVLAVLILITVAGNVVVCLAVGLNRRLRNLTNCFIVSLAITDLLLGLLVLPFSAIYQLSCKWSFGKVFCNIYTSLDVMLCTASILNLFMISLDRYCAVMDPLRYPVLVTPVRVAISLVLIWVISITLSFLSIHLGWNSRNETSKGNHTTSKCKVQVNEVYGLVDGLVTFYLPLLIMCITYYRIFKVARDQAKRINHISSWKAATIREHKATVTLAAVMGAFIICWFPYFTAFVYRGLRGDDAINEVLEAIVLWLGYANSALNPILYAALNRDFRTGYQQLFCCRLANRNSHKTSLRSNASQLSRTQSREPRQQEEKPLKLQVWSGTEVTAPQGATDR
H1 receptors, sequence (P35367 whole entry): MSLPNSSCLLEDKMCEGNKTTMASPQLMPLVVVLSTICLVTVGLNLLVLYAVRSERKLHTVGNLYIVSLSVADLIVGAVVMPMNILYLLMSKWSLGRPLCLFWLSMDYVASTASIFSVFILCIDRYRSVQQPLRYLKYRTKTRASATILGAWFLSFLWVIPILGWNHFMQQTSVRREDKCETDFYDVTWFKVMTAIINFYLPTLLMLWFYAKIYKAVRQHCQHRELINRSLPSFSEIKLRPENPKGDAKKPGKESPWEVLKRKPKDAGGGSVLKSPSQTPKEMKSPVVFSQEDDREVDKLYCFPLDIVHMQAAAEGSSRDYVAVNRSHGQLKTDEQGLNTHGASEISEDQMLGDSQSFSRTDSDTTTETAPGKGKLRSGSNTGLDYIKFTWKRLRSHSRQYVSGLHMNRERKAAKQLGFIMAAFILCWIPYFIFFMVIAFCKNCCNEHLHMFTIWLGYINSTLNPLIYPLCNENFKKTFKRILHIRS

Compound: CN1CCC(=C2c3ccccc3CCn3c(C=O)cnc32)CC1 [Alcaftadine, 6,11-dihydro-11-(1-methyl-4-piperidinylidene)-5H-imidazo[2,1-b][3]benzazepine-3-carboxaldehyde]
- plasma concentration / systemic exposure ([1]; intranasal, rabbits): dose proportional with overall low systemic exposure
- Tmax ([1]; 0.312 mg): 4.8 min
- Tmax ([1]; 0.625 mg): 4.8 min
- Tmax ([1]; 1.25 mg): 4.8 min
- area under the curve (AUC0-24h) [1, 3]: dose proportional
- peak plasma concentrations (Cmax) [1, 3]: dose proportional
- binding affinity to H1 receptors (H1 receptors): higher binding affinity
- binding affinity to H2 receptors (H2 receptors): higher binding affinity
- signs or symptoms of inflammation or irritation [2]: no signs or symptoms of inflammation or irritation were observed
